Source: patent publication US20090156577A1, “7-AMINO ALKYLIDENYL-HETEROCYCLIC QUINOLONES AND NAPHTHYRIDONES” (priority 2004, published 2009)
≈ marks a conversion by molar mass, not a printed value. Where two headings read alike, the source gives them in different places.

System: pathogenic bacteria
Assay: MIC by microdilution broth method (NCCLS M7-A4), in vitro antibacterial activity
Type: cell-based
Summary of the method: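 MIC read after 35 °C incubation for 16–20 h relative to drug-free growth wells. Cation-adjusted Mueller-Hinton broth with two-fold compound dilutions, organisms at roughly 5×10^4 CFU/well final. Method follows NCCLS document M7-A4.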

[1] = Staphylococcus aureus, Organism A: Staphylococcus aureus OC4172, read-out: MIC
[2] = Streptococcus pneumoniae, ATCC49619, Organism E: Streptococcus pneumoniae ATCC 49619, read-out: MIC
[3] = Streptococcus pneumoniae, Organism B: fluoroquinolone-resistant clinical isolate of Streptococcus pneumoniae (QRDR amino acid substitutions)
[4] = Streptococcus pneumoniae, Organism C: fluoroquinolone-resistant clinical isolate of Streptococcus pneumoniae (QRDR amino acid substitutions)
[5] = Streptococcus pneumoniae, Organism D: fluoroquinolone-resistant clinical isolate of Streptococcus pneumoniae (QRDR amino acid substitutions)

Row | Compound | MIC [1] | MIC [2] | MIC [3] | MIC [4] | MIC [5]
1 | COc1c(N2CCC/C(=C(\Cl)CN)C2)c(F)cc2c(=O)c(C(=O)O)cn([C@@H]3C[C@@H]3F)c12 [Compound 407, (E)-7-[3-(2-Amino-1-chloro-ethylidene)-piperidin-1-yl]-6-fluoro-(1R,2S)-1-(2-fluoro-cyclopropyl)-8-methoxy-4-oxo-1,4-dihydro-quinoline-3-carboxylic acid] | ≤ 0.015 µg/mL | 0.03 µg/mL (≈ 0.0661 µM) | 0.03 µg/mL (≈ 0.0661 µM) | 0.25 µg/mL (≈ 0.551 µM) | 0.12 µg/mL (≈ 0.264 µM)
2 | COc1c(N2CCC/C(=C/CN)C2)c(F)cc2c(=O)c(C(=O)O)cn([C@@H]3C[C@@H]3F)c12 [Compound 408, (Z)-7-[3-(2-Amino-ethylidene)-piperidin-1-yl]-6-fluoro-(1R,2S)-1-(2-fluoro-cyclopropyl)-8-methoxy-4-oxo-1,4-dihydro-quinoline-3-carboxylic acid] | 0.03 µg/mL (≈ 0.0715 µM) | 0.25 µg/mL (≈ 0.596 µM) | 1 µg/mL (≈ 2.38 µM) | 2 µg/mL (≈ 4.77 µM) | 2 µg/mL (≈ 4.77 µM)
3 | COc1c(N2CCC/C(=C\CN)C2)c(F)cc2c(=O)c(C(=O)O)cn([C@@H]3C[C@@H]3F)c12 [Compound 409, (E)-7-[3-(2-Amino-ethylidene)-piperidin-1-yl]-6-fluoro-(1R,2S)-1-(2-fluoro-cyclopropyl)-8-methoxy-4-oxo-1,4-dihydro-quinoline-3-carboxylic acid] | 0.12 µg/mL (≈ 0.286 µM) | 1 µg/mL (≈ 2.38 µM) |  | > 16 µg/mL | > 16 µg/mL
4 | COc1c(N2CCC/C(=C(\C)CN)C2)c(F)cc2c(=O)c(C(=O)O)cn([C@@H]3C[C@@H]3F)c12 [Compound 410, (Z)-7-[3-(2-Amino-1-methyl-ethylidene)-piperidin-1-yl]-6-fluoro-(1R,2S)-1-(2-fluoro-cyclopropyl)-8-methoxy-4-oxo-1,4-dihydro-quinoline-3-carboxylic acid] | ≤ 0.015 µg/mL | 0.06 µg/mL (≈ 0.138 µM) |  | 0.5 µg/mL (≈ 1.15 µM) | 1 µg/mL (≈ 2.31 µM)
5 | NC/C(F)=C1\CCCN(c2c(F)cc3c(=O)c(C(=O)O)cn(-c4nc(N)c(F)cc4F)c3c2Cl)C1 [Compound 411, (Z)-1-(6-Amino-3,5-difluoro-pyridin-2-yl)-7-[3-(2-amino-1-fluoro-ethylidene)-piperidin-1-yl]-8-chloro-6-fluoro-4-oxo-1,4-dihydro-quinoline-3-carboxylic acid] | 0.06 µg/mL (≈ 0.117 µM) | 1 µg/mL (≈ 1.95 µM) | > 16 µg/mL | > 16 µg/mL | 16 µg/mL (≈ 31.3 µM)
6 | NC/C(Cl)=C1/CCCN(c2c(F)cc3c(=O)c(C(=O)O)cn(-c4nc(N)c(F)cc4F)c3c2Cl)C1 [Compound 412, (E)-1-(6-Amino-3,5-difluoro-pyridin-2-yl)-7-[3-(2-amino-1-chloro-ethylidene)-piperidin-1-yl]8-chloro-6-fluoro-4-oxo-1,4-dihydro-quinoline-3-carboxylic acid] | 0.12 µg/mL (≈ 0.227 µM) | 1 µg/mL (≈ 1.89 µM) | 16 µg/mL (≈ 30.3 µM) | > 16 µg/mL | 8 µg/mL (≈ 15.1 µM)
7 | NC/C=C1/CCCN(c2c(F)cc3c(=O)c(C(=O)O)cn(-c4nc(N)c(F)cc4F)c3c2Cl)C1 [Compound 413, (Z)-1-(6-Amino-3,5-difluoro-pyridin-2-yl)-7-[3-(2-amino-ethylidene)-piperidin-1-yl]8-chloro-6-fluoro-4-oxo-1,4-dihydro-quinoline-3-carboxylic acid] | 0.25 µg/mL (≈ 0.506 µM) | 2 µg/mL (≈ 4.05 µM) | 16 µg/mL (≈ 32.4 µM) | > 16 µg/mL | > 16 µg/mL
8 | NC/C=C1\CCCN(c2c(F)cc3c(=O)c(C(=O)O)cn(-c4nc(N)c(F)cc4F)c3c2Cl)C1 [Compound 414, (E)-1-(6-Amino-3,5-difluoro-pyridin-2-yl)-7-[3-(2-amino-ethylidene)-piperidin-1-yl]8-chloro-6-fluoro-4-oxo-1,4-dihydro-quinoline-3-carboxylic acid] | 0.25 µg/mL (≈ 0.506 µM) | 2 µg/mL (≈ 4.05 µM) |  | > 16 µg/mL | > 16 µg/mL
9 | Nc1nc(-n2cc(C(=O)O)c(=O)c3cc(F)c(N4CCC/C(=C(\F)CO)C4)c(Cl)c32)c(F)cc1F [Compound 415, (E)-1-(6-Amino-3,5-difluoro-pyridin-2-yl)-8-chloro-6-fluoro-7-[3-(1-fluoro-2-hydroxy-ethylidene)-piperidin-1-yl]-4-oxo-1,4-dihydro-quinoline-3-carboxylic acid] | 0.12 µg/mL (≈ 0.234 µM) | 4 µg/mL (≈ 7.8 µM) |  | > 16 µg/mL | > 16 µg/mL
10 | Nc1nc(-n2cc(C(=O)O)c(=O)c3cc(F)c(N4CCC/C(=C(/Cl)CO)C4)c(Cl)c32)c(F)cc1F [Compound 416, (Z)-1-(6-Amino-3,5-difluoro-pyridin-2-yl)-8-chloro-7-[3-(1-chloro-2-hydroxy-ethylidene)-piperidin-1-yl]-6-fluoro-4-oxo-1,4-dihydro-quinoline-3-carboxylic acid] | 0.06 µg/mL (≈ 0.113 µM) | 1 µg/mL (≈ 1.89 µM) | 16 µg/mL (≈ 30.2 µM) | > 16 µg/mL | 16 µg/mL (≈ 30.2 µM)
11 | Nc1nc(-n2cc(C(=O)O)c(=O)c3cc(F)c(N4CCC(=C(F)CO)CC4)c(Cl)c32)c(F)cc1F [Compound 417, 1-(6-Amino-3,5-difluoro-pyridin-2-yl)-8-chloro-6-fluoro-7-[4-(1-fluoro-2-hydroxy-ethylidene)-piperidin-1-yl]-4-oxo-1,4-dihydro-quinoline-3-carboxylic acid] | 0.03 µg/mL (≈ 0.0585 µM) | 0.5 µg/mL (≈ 0.975 µM) | 8 µg/mL (≈ 15.6 µM) | > 16 µg/mL | 4 µg/mL (≈ 7.8 µM)
12 | CNCC(F)=C1CN(c2c(F)cc3c(=O)c(C(=O)O)cn(-c4nc(N)c(F)cc4F)c3c2Cl)C1 [Compound 418, 1-(6-Amino-3,5-difluoro-pyridin-2-yl)-8-chloro-6-fluoro-7-[3-(1-fluoro-2-methylamino-ethylidene)-azetidin-1-yl]-4-oxo-1,4-dihydro-quinoline-3-carboxylic acid] | 0.06 µg/mL (≈ 0.121 µM) | 1 µg/mL (≈ 2.01 µM) | 16 µg/mL (≈ 32.1 µM) | > 16 µg/mL | 16 µg/mL (≈ 32.1 µM)
13 | Nc1nc(-n2cc(C(=O)O)c(=O)c3cc(F)c(N4CC(=C(F)CO)C4)c(Cl)c32)c(F)cc1F [Compound 419, 1-(6-Amino-3,5-difluoro-pyridin-2-yl)-8-chloro-6-fluoro-7-[3-(1-fluoro-2-hydroxy-ethylidene)-azetidin-1-yl]-4-oxo-1,4-dihydro-quinoline-3-carboxylic acid] | ≤ 0.015 µg/mL | ≤ 0.015 µg/mL | 0.03 µg/mL (≈ 0.0619 µM) | 0.25 µg/mL (≈ 0.516 µM) | 0.06 µg/mL (≈ 0.124 µM)
14 | NCC=C1CN(c2c(F)cc3c(=O)c(C(=O)O)cn(-c4nc(N)c(F)cc4F)c3c2Cl)C1 [Compound 420, 1-(6-Amino-3,5-difluoro-pyridin-2-yl)-7-[3-(2-amino-ethylidene)-azetidin-1-yl]-8-chloro-6-fluoro-4-oxo-1,4-dihydro-quinoline-3-carboxylic acid] | ≤ 0.015 µg/mL | 0.12 µg/mL (≈ 0.258 µM) |  | 1 µg/mL (≈ 2.15 µM) | 0.5 µg/mL (≈ 1.07 µM)
15 | CC(CN)=C1CN(c2c(F)cc3c(=O)c(C(=O)O)cn(-c4nc(N)c(F)cc4F)c3c2Cl)C1 [Compound 421, 1-(6-Amino-3,5-difluoro-pyridin-2-yl)-7-[3-(2-amino-1-methyl-ethylidene)-azetidin-1-yl]-8-chloro-6-fluoro-4-oxo-1,4-dihydro-quinoline-3-carboxylic acid] | 0.06 µg/mL (≈ 0.125 µM) | 0.25 µg/mL (≈ 0.521 µM) |  | 2 µg/mL (≈ 4.17 µM) | 1 µg/mL (≈ 2.08 µM)
16 | C/C(CN)=C1\CCCN(c2c(F)cc3c(=O)c(C(=O)O)cn(-c4nc(N)c(F)cc4F)c3c2Cl)C1 [Compound 422, (Z)-1-(6-Amino-3,5-difluoro-pyridin-2-yl)-7-[3-(2-amino-1-methyl-ethylidene)-piperidin-1-yl]-8-chloro-6-fluoro-4-oxo-1,4-dihydro-quinoline-3-carboxylic acid] | 0.12 µg/mL (≈ 0.236 µM) | 1 µg/mL (≈ 1.97 µM) | > 16 µg/mL | > 16 µg/mL | > 16 µg/mL
17 | C/C(CN)=C1/CCCN(c2c(F)cc3c(=O)c(C(=O)O)cn(-c4nc(N)c(F)cc4F)c3c2Cl)C1 [Compound 423, (E)-1-(6-Amino-3,5-difluoro-pyridin-2-yl)-7-[3-(2-amino-1-methyl-ethylidene)-piperidin-1-yl]-8-chloro-6-fluoro-4-oxo-1,4-dihydro-quinoline-3-carboxylic acid] | 0.25 µg/mL (≈ 0.492 µM) | 4 µg/mL (≈ 7.88 µM) | > 16 µg/mL | > 16 µg/mL | > 16 µg/mL
18 | Cc1c(F)c(N2CCC/C(=C(\F)CN)C2)cc2c1c(=O)c(C(=O)O)cn2C1CC1 [Compound 424, (E)-7-[3-(2-Amino-1-fluoro-ethylidene)-piperidin-1-yl]-1-cyclopropyl-6-fluoro-5-methyl-4-oxo-1,4-dihydro-quinoline-3-carboxylic acid] | ≤ 0.015 µg/mL | ≤ 1 µg/mL | 0.06 µg/mL (≈ 0.149 µM) | 0.5 µg/mL (≈ 1.24 µM) | ≤ 1 µg/mL
19 | Cc1c(F)c(N2CCC/C(=C(/F)CN)C2)cc2c1c(=O)c(C(=O)O)cn2C1CC1 [Compound 425, (Z)-7-[3-(2-Amino-1-fluoro-ethylidene)-piperidin-1-yl]-1-cyclopropyl-6-fluoro-5-methyl-4-oxo-1,4-dihydro-quinoline-3-carboxylic acid] | 0.06 µg/mL (≈ 0.149 µM) | 1 µg/mL (≈ 2.48 µM) | 4 µg/mL (≈ 9.92 µM) | 16 µg/mL (≈ 39.7 µM) | 8 µg/mL (≈ 19.8 µM)
20 | Cc1c(F)c(N2CCC/C(=C(\Cl)CN)C2)cc2c1c(=O)c(C(=O)O)cn2C1CC1 [Compound 426, (E)-7-[3-(2-Amino-1-chloro-ethylidene)-piperidin-1-yl]-1-cyclopropyl-6-fluoro-5-methyl-4-oxo-1,4-dihydro-quinoline-3-carboxylic acid] | ≤ 0.015 µg/mL | 0.06 µg/mL (≈ 0.143 µM) | ≤ 0.5 µg/mL | 1 µg/mL (≈ 2.38 µM) | 0.25 µg/mL (≈ 0.595 µM)
21 | Cc1c(F)c(N2CCC/C(=C/CN)C2)cc2c1c(=O)c(C(=O)O)cn2C1CC1 [Compound 427, (Z)-7-[3-(2-Amino-ethylidene)-piperidin-1-yl]-1-cyclopropyl-6-fluoro-5-methyl-4-oxo-1,4-dihydro-quinoline-3-carboxylic acid] | ≤ 0.015 µg/mL | 0.12 µg/mL (≈ 0.311 µM) | 2 µg/mL (≈ 5.19 µM) | 4 µg/mL (≈ 10.4 µM) | 1 µg/mL (≈ 2.59 µM)
